Source: BindingDB's records for doi:10.1016/j.bmcl.2003.09.094 (Cv Therapeutics, 2003)

target: Adenosine receptor A1 (hamster); experiment: Binding affinity for adenosine A1 receptor determined using hamster DDT1 cell membranes with [3H]CCPA as radioligand

Going from `C=CCNC(=O)OC[C@H]1OC(n2cnc3c(NC4CCOC4)ncnc32)[C@H](O)[C@@H]1O` (stereo partly drawn) [Allyl-carbamic acid (2R,3S,4R)-3,4-dihydroxy-5-{6-[(R)-(tetrahydro-furan-3-yl)amino]-purin-9-yl}-tetrahydro-furan-2-ylmethyl ester] to `C=CCNC(=S)OC[C@H]1OC(n2cnc3c(NC4CCOC4)ncnc32)[C@H](O)[C@@H]1O` (stereo partly drawn) [Allyl-thiocarbamic acid (2R,3S,4R)-3,4-dihydroxy-5-{6-[(R)-(tetrahydro-furan-3-yl)amino]-purin-9-yl}-tetrahydro-furan-2-ylmethyl ester], the Ki falls from 524 nM to 35 nM (15-fold). The second binds more tightly here.

Compared with `O=C(NCc1ccccc1)OC[C@H]1OC(n2cnc3c(NC4CCOC4)ncnc32)[C@H](O)[C@@H]1O` (stereo partly drawn) [Benzyl-carbamic acid (2R,3S,4R)-3,4-dihydroxy-5-{6-[(R)-(tetrahydro-furan-3-yl)amino]-purin-9-yl}-tetrahydro-furan-2-ylmethyl ester], `O[C@@H]1[C@@H](COC(=S)NCc2ccccc2)OC(n2cnc3c(NC4CCOC4)ncnc32)[C@@H]1O` (stereo partly drawn) [Benzyl-thiocarbamic acid (2R,3S,4R)-3,4-dihydroxy-5-{6-[(R)-(tetrahydro-furan-3-yl)amino]-purin-9-yl}-tetrahydro-furan-2-ylmethyl ester] is 150-fold lower in Ki: 1830 nM for the first, 12 nM for the second. The second binds more tightly here.

Compared with `CCCCNC(=O)OC[C@H]1OC(n2cnc3c(NC4CCOC4)ncnc32)[C@H](O)[C@@H]1O` (stereo partly drawn) [Butyl-carbamic acid (2R,3S,4R)-3,4-dihydroxy-5-{6-[(R)-(tetrahydro-furan-3-yl)amino]-purin-9-yl}-tetrahydro-furan-2-ylmethyl ester], `CCCNC(=O)OC[C@H]1OC(n2cnc3c(NC4CCOC4)ncnc32)[C@H](O)[C@@H]1O` (stereo partly drawn) [Propyl-carbamic acid (2R,3S,4R)-3,4-dihydroxy-5-{6-[(R)-(tetrahydro-furan-3-yl)amino]-purin-9-yl}-tetrahydro-furan-2-ylmethyl ester] is 6-fold lower in Ki: 1410 nM for the first, 235 nM for the second.

Compared with `CCCCNC(=S)OC[C@H]1OC(n2cnc3c(NC4CCOC4)ncnc32)[C@H](O)[C@@H]1O` (stereo partly drawn) [Butyl-thiocarbamic acid (2R,3S,4R)-3,4-dihydroxy-5-{6-[(R)-(tetrahydro-furan-3-yl)amino]-purin-9-yl}-tetrahydro-furan-2-ylmethyl ester], `CCCNC(=S)OC[C@H]1OC(n2cnc3c(NC4CCOC4)ncnc32)[C@H](O)[C@@H]1O` (stereo partly drawn) [Propyl-thiocarbamic acid (2R,3S,4R)-3,4-dihydroxy-5-{6-[(R)-(tetrahydro-furan-3-yl)amino]-purin-9-yl}-tetrahydro-furan-2-ylmethyl ester] is 3.1-fold lower in Ki: 157 nM for the first, 50 nM for the second. The second binds more tightly here.

`O=C(NC1CCC1)OC[C@H]1OC(n2cnc3c(NC4CCOC4)ncnc32)[C@H](O)[C@@H]1O` (stereo partly drawn) [Cyclobutyl-carbamic acid (2R,3S,4R)-3,4-dihydroxy-5-{6-[(R)-(tetrahydro-furan-3-yl)amino]-purin-9-yl}-tetrahydro-furan-2-ylmethyl ester] and `O=C(NC1CC1)OC[C@H]1OC(n2cnc3c(NC4CCOC4)ncnc32)[C@H](O)[C@@H]1O` (stereo partly drawn) [Cyclopropyl-carbamic acid (2R,3S,4R)-3,4-dihydroxy-5-{6-[(R)-(tetrahydro-furan-3-yl)amino]-purin-9-yl}-tetrahydro-furan-2-ylmethyl ester] are within 1.5-fold of each other in Ki: 306 nM for the first, 209 nM for the second.

`O[C@@H]1[C@@H](COC(=S)NC2CCC2)OC(n2cnc3c(NC4CCOC4)ncnc32)[C@@H]1O` (stereo partly drawn) [Cyclobutyl-thiocarbamic acid (2R,3S,4R)-3,4-dihydroxy-5-{6-[(R)-(tetrahydro-furan-3-yl)amino]-purin-9-yl}-tetrahydro-furan-2-ylmethyl ester] and `O[C@@H]1[C@@H](COC(=S)NC2CC2)OC(n2cnc3c(NC4CCOC4)ncnc32)[C@@H]1O` (stereo partly drawn) [Cyclopropyl-thiocarbamic acid (2R,3S,4R)-3,4-dihydroxy-5-{6-[(R)-(tetrahydro-furan-3-yl)amino]-purin-9-yl}-tetrahydro-furan-2-ylmethyl ester] are within 1.5-fold of each other in Ki: 148 nM for the first, 157 nM for the second.

Going from `O=C(NC1CCCCC1)OC[C@H]1OC(n2cnc3c(NC4CCOC4)ncnc32)[C@H](O)[C@@H]1O` (stereo partly drawn) [Cyclohexyl-carbamic acid (2R,3S,4R)-3,4-dihydroxy-5-{6-[(R)-(tetrahydro-furan-3-yl)amino]-purin-9-yl}-tetrahydro-furan-2-ylmethyl ester] to `O[C@@H]1[C@@H](COC(=S)NC2CCCCC2)OC(n2cnc3c(NC4CCOC4)ncnc32)[C@@H]1O` (stereo partly drawn) [Cyclohexyl-thiocarbamic acid (2R,3S,4R)-3,4-dihydroxy-5-{6-[(R)-(tetrahydro-furan-3-yl)amino]-purin-9-yl}-tetrahydro-furan-2-ylmethyl ester], the Ki falls from 584 nM to 253 nM (2.3-fold). The second binds more tightly here.

Going from `O=C(NC1CCCC1)OC[C@H]1OC(n2cnc3c(NC4CCOC4)nc(Cl)nc32)[C@H](O)[C@@H]1O` (stereo partly drawn) [Cyclopentyl-carbamic acid (2R,3S,4R)-5-{2-chloro-6-[(R)-(tetrahydro-furan-3-yl)amino]-purin-9-yl}-3,4-dihydroxy-tetrahydro-furan-2-ylmethyl ester] to `CNC(=O)OC[C@H]1OC(n2cnc3c(NC4CCOC4)nc(Cl)nc32)[C@H](O)[C@@H]1O` (stereo partly drawn) [Methyl-carbamic acid (2R,3S,4R)-5-{2-chloro-6-[(R)-(tetrahydro-furan-3-yl)amino]-purin-9-yl}-3,4-dihydroxy-tetrahydro-furan-2-ylmethyl ester], the Ki falls from 226 nM to 96 nM (2.4-fold).

Compared with `O[C@@H]1[C@@H](COC(=S)NC2CCCC2)OC(n2cnc3c(NC4CCOC4)ncnc32)[C@@H]1O` (stereo partly drawn) [Cyclopentyl-thiocarbamic acid (2R,3S,4R)-3,4-dihydroxy-5-{6-[(R)-(tetrahydro-furan-3-yl)amino]-purin-9-yl}-tetrahydro-furan-2-ylmethyl ester], `CNC(=S)OC[C@H]1OC(n2cnc3c(NC4CCOC4)ncnc32)[C@H](O)[C@@H]1O` (stereo partly drawn) [Methyl-thiocarbamic acid (2R,3S,4R)-3,4-dihydroxy-5-{6-[(R)-(tetrahydro-furan-3-yl)amino]-purin-9-yl}-tetrahydro-furan-2-ylmethyl ester] is 1.6-fold lower in Ki: 72 nM for the first, 45 nM for the second. The second binds more tightly here.

`CN(C)C(=O)OC[C@H]1OC(n2cnc3c(NC4CCOC4)ncnc32)[C@H](O)[C@@H]1O` (stereo partly drawn) [Dimethyl-carbamic acid (2R,3S,4R)-3,4-dihydroxy-5-{6-[(R)-(tetrahydro-furan-3-yl)amino]-purin-9-yl}-tetrahydro-furan-2-ylmethyl ester] and `CN(C)C(=S)OC[C@H]1OC(n2cnc3c(NC4CCOC4)ncnc32)[C@H](O)[C@@H]1O` (stereo partly drawn) [Dimethyl-thiocarbamic acid (2R,3S,4R)-3,4-dihydroxy-5-{6-[(R)-(tetrahydro-furan-3-yl)amino]-purin-9-yl}-tetrahydro-furan-2-ylmethyl ester] are within 1.5-fold of each other in Ki: 238 nM for the first, 205 nM for the second.

First: CCNC(=O)OC[C@H]1OC(n2cnc3c(NC4CCOC4)ncnc32)[C@H](O)[C@@H]1O (stereo partly drawn) [Ethyl-carbamic acid (2R,3S,4R)-3,4-dihydroxy-5-{6-[(R)-(tetrahydro-furan-3-yl)amino]-purin-9-yl}-tetrahydro-furan-2-ylmethyl ester]
Second: CCNC(=S)OC[C@H]1OC(n2cnc3c(NC4CCOC4)ncnc32)[C@H](O)[C@@H]1O (stereo partly drawn) [Ethyl-thiocarbamic acid (2R,3S,4R)-3,4-dihydroxy-5-{6-[(R)-(tetrahydro-furan-3-yl)amino]-purin-9-yl}-tetrahydro-furan-2-ylmethyl ester]
The Ki of the first is 5.1-fold higher: 167 nM for the first, 33 nM for the second. The second binds more tightly here.

`CCNC(=S)OC[C@H]1OC(n2cnc3c(NC4CCOC4)nc(Cl)nc32)[C@H](O)[C@@H]1O` (stereo partly drawn) [Ethyl-thiocarbamic acid (2R,3S,4R)-5-{2-chloro-6-[(R)-(tetrahydro-furan-3-yl)amino]-purin-9-yl}-3,4-dihydroxy-tetrahydro-furan-2-ylmethyl ester] and `CNC(=S)OC[C@H]1OC(n2cnc3c(NC4CCOC4)nc(Cl)nc32)[C@H](O)[C@@H]1O` (stereo partly drawn) [Methyl-thiocarbamic acid (2R,3S,4R)-5-{2-chloro-6-[(R)-(tetrahydro-furan-3-yl)amino]-purin-9-yl}-3,4-dihydroxy-tetrahydro-furan-2-ylmethyl ester] are within 1.5-fold of each other in Ki: 55 nM for the first, 71 nM for the second.

First: CC(C)NC(=O)OC[C@H]1OC(n2cnc3c(NC4CCOC4)ncnc32)[C@H](O)[C@@H]1O (stereo partly drawn) [Isopropyl-carbamic acid (2R,3S,4R)-3,4-dihydroxy-5-{6-[(R)-(tetrahydro-furan-3-yl)amino]-purin-9-yl}-tetrahydro-furan-2-ylmethyl ester]
Second: CC(C)NC(=S)OC[C@H]1OC(n2cnc3c(NC4CCOC4)ncnc32)[C@H](O)[C@@H]1O (stereo partly drawn) [Isopropyl-thiocarbamic acid (2R,3S,4R)-3,4-dihydroxy-5-{6-[(R)-(tetrahydro-furan-3-yl)amino]-purin-9-yl}-tetrahydro-furan-2-ylmethyl ester]
The Ki of the first is 2.2-fold higher: 78 nM for the first, 36 nM for the second.
